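Results reflect a 48-hour exposure of cells in 96-well plates to compound at five concentrations. TGI denotes the concentration required for complete inhibition of growth.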
Assays:
Assay in all cases: DTP human tumour cell line panel, 48 h
UO-31 renal = system: UO-31 renal
SK-MEL-28 melanoma = system: SK-MEL-28 melanoma
HT29 colon = system: HT29 colon
SF-539 CNS = system: SF-539 CNS
LOX IMVI melanoma = system: LOX IMVI melanoma
RXF 393 renal = system: RXF 393 renal
COLO 205 colon = system: COLO 205 colon
UACC-62 melanoma = system: UACC-62 melanoma
SN12C renal = system: SN12C renal
UACC-257 melanoma = system: UACC-257 melanoma
SK-MEL-2 melanoma = system: SK-MEL-2 melanoma
MOLT-4 leukemia = system: MOLT-4 leukemia
OVCAR-5 ovarian = system: OVCAR-5 ovarian
SF-295 CNS = system: SF-295 CNS
786-0 renal = system: 786-0 renal
DU-145 prostate = system: DU-145 prostate
HCT-15 colon = system: HCT-15 colon
NCI-H226 lung = system: NCI-H226 lung
TK-10 renal = system: TK-10 renal
BT-549 breast = system: BT-549 breast
HCT-116 colon = system: HCT-116 colon
OVCAR-8 ovarian = system: OVCAR-8 ovarian
HS 578T breast = system: HS 578T breast
K-562 leukemia = system: K-562 leukemia
IGROV1 ovarian = system: IGROV1 ovarian
SW-620 colon = system: SW-620 colon
SNB-75 CNS = system: SNB-75 CNS
HOP-62 NSCLC = system: HOP-62 NSCLC
CCRF-CEM leukemia = system: CCRF-CEM leukemia
MDA-N = system: MDA-N
HL-60(TB) leukemia = system: HL-60(TB) leukemia
A549 NSCLC = system: A549 NSCLC
SK-OV-3 ovarian = system: SK-OV-3 ovarian
RPMI-8226 leukemia = system: RPMI-8226 leukemia
U251 CNS = system: U251 CNS
M14 melanoma = system: M14 melanoma
SNB-19 CNS = system: SNB-19 CNS
OVCAR-4 ovarian = system: OVCAR-4 ovarian
NCI-H23 lung = system: NCI-H23 lung
KM12 colon = system: KM12 colon
OVCAR-3 ovarian = system: OVCAR-3 ovarian
NCI/ADR-RES ovarian = system: NCI/ADR-RES ovarian
SK-MEL-5 melanoma = system: SK-MEL-5 melanoma
MALME-3M melanoma = system: MALME-3M melanoma
HOP-92 NSCLC = system: HOP-92 NSCLC
EKVX NSCLC = system: EKVX NSCLC
SF-268 CNS = system: SF-268 CNS
MCF7 breast = system: MCF7 breast
MDA-MB-231 breast = system: MDA-MB-231 breast
MDA-MB-435 = system: MDA-MB-435
CAKI-1 renal = system: CAKI-1 renal
NCI-H522 lung = system: NCI-H522 lung

Measured: TGI

Cc1ccc(S(=O)(=O)NC(=O)Nc2cc(Cl)c(S(N)(=O)=O)cc2S(N)(=O)=O)cc1
> 100 µM: UO-31 renal | SK-MEL-28 melanoma | HT29 colon | SF-539 CNS | LOX IMVI melanoma | RXF 393 renal | COLO 205 colon | UACC-62 melanoma | SN12C renal | UACC-257 melanoma | SK-MEL-2 melanoma | MOLT-4 leukemia | OVCAR-5 ovarian | SF-295 CNS | 786-0 renal | DU-145 prostate | HCT-15 colon | NCI-H226 lung | TK-10 renal | BT-549 breast | HCT-116 colon | OVCAR-8 ovarian | HS 578T breast | K-562 leukemia | IGROV1 ovarian | SW-620 colon | SNB-75 CNS | HOP-62 NSCLC | CCRF-CEM leukemia | MDA-N | HL-60(TB) leukemia | A549 NSCLC | SK-OV-3 ovarian | RPMI-8226 leukemia | U251 CNS | M14 melanoma | SNB-19 CNS | OVCAR-4 ovarian | NCI-H23 lung | KM12 colon | OVCAR-3 ovarian | NCI/ADR-RES ovarian | SK-MEL-5 melanoma | MALME-3M melanoma | HOP-92 NSCLC | EKVX NSCLC | SF-268 CNS | MCF7 breast | MDA-MB-231 breast | MDA-MB-435 | CAKI-1 renal | NCI-H522 lung
